# Results as given in paper PMC7521041 (Current Genomics, 2020).
# Molecular target: T1, Alr0765 (Nostoc sp. PCC 7120 = FACHB-418, UniProt A0ACD7RPC9)
# T1 sequence (A0ACD7RPC9 1-204): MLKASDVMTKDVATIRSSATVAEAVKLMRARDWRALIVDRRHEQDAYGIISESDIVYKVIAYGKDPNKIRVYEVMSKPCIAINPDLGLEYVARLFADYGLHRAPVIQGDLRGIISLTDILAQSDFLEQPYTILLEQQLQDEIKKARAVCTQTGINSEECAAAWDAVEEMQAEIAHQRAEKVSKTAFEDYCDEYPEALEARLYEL
# Assay: FTIR amide I conformational change
# Assay type: binding
# Conditions: 3 mM ligand, 1.3 mM protein, pH 8.0, 25 C
row,SMILES,FTIR amide I conformational change
1,Nc1ncnc2c1ncn2[C@@H]1O[C@H](COP(=O)(O)O)[C@@H](O)[C@H]1O [AMP],"Alr0765 binds with adenosyl ligands, which led to conformational changes"
2,Nc1ncnc2c1ncn2[C@@H]1O[C@H](COP(=O)(O)OP(=O)(O)O)[C@@H](O)[C@H]1O [ADP],"Alr0765 binds with adenosyl ligands, which led to conformational changes"
3,NC(=O)C1=CN([C@@H]2O[C@H](COP(=O)(O)OP(=O)(O)OC[C@H]3O[C@@H](n4cnc5c(N)ncnc54)[C@H](O)[C@@H]3O)[C@@H](O)[C@H]2O)C=CC1 [NADH],"Alr0765 binds with adenosyl ligands, which led to conformational changes"
